The text below walks through data of ChEMBL document CHEMBL1141278, “Naamidines H and I, cytotoxic imidazole alkaloids from the Indonesian marine sponge Leucetta chagosensis” (J Nat Prod, 2007).

Values after ≈ are worked out from the molar mass of the structure shown. Active and inactive are the calls of the source. The calls are words filed in the database; no cut-off is given here.

The subject of one assay is HeLa. As to the kind of experiment: Cytotoxicity against human HeLa cells by MTT assay. In kind it is functional, cell-based. A general note: Tetrazolium assays rely on reduction of a dye to a coloured formazan, in cell work by metabolically active cells.
The next assay has as its system Escherichia coli. The assay is described as follows: Antimicrobial activity against Escherichia coli at 50 ug/6 mm disk by paper disk method. The class given is functional, organism-based.

As for `COc1ccc(Cc2[nH]/c(=N\C3=NC(=O)N(C)C3=O)n(C)c2Cc2cc(OC)c(O)c(OC)c2)cc1` [NAAMIDINE H], the IC50 in the assay with HeLa is 5.6 µg/mL (≈ 11.3 µM). Further, the result in the assay with Escherichia coli was inactive.
`C/N=C1N=C(/N=c2\[nH]c(Cc3ccc(OC)cc3)c(Cc3cc(OC)c(O)c(OC)c3)n2C)C(=O)N\1C` [NAAMIDINE I]: inhibition in the assay on HeLa was half-maximal at 15 µg/mL (≈ 29.6 µM) (IC50). In the assay with Escherichia coli, the result was inactive.

One may read the IC50 as the concentration that gives 50% inhibition. A low value points to greater potency in that assay.
